Results as given in PubChem BioAssay AID2060513 (Molecular Pharmacology Branch, DTP, NCI, 2025).
Blank lines part the entries; values can stand above or below the molecule they belong to.

Tested on: 299254-011-R-J1-PDC complex spheroids viability
Assay: Anticancer human tumor 299254-011-R-J1-PDC patient-derived melanoma cell line growth inhibition [GQUAD]
Details: for IC50: curve of first compound; for viability, T/C: stronger effect = lower value
Source text: DNA G-quadruplex Stabilizer Agents in Combinations in Complex Spheroids
A high-throughput screen of multi-cell type tumor spheroids was designed to identify active combinations of DNA G-quadruplex stabilizer agents and targeted small molecules. Complex spheroids include a stromal component modeled by human endothelial cells (HUVEC) and fibroblasts modeled by human mesenchymal stem cells (MSCs). The concentration ranges selected for each drug and investigational agent were based upon clinically achievable concentrations if the clinical Cmax of the agent was known.
Compounds. The drugs and investigational agents: pidnarulex (CX-5461; NSC782164), APTO-253 (NSC789042), BRACO-19 (NSC847499), peposertib (NSC802822), ceralasertib (NSC780249), elimusertib (NSC800525), camonsertib (NSC841442), AZD-1390 (NSC803789), olaparib (NSC753686), talazoparib (NSC767125), ART-558 (NSC835418), sotorasib (NSC818433), MRTX-1133 (NSC836407), SN-38 (NSC673596), topotecan (NSC609699), etoposide (NSC141540), doxorubicin (NSC123127), gemcitabine (NSC613327), 5-fluorouracil (NSC19893), paclitaxel (NSC125973), vemurafenib (NSC761431), panobinostat (NSC761190), R-306465 (JNJ-16241199; NSC773264), adavosertib (NSC754352), TP-3654 (NSC805149), carboplatin (NSC241240), KSQ-4279 (NSC840948), and staurosporine (NSC755774) were obtained from the National Cancer Institute (NCI) Developmental Therapeutics Program Chemical Repository (34). The FDA-approved anticancer drug set is available from the NCI Developmental Therapeutics Program. […] The stock solutions were prepared in dimethyl sulfoxide (DMSO, Sigma-Aldrich, St. Louis, MO, cat. D2650) at 800-fold the tested concentration and stored at -70 degrees C prior to their use. All drugs and investigational agents were tested over a range starting from a high concentration at or near the clinical Cmax and decreasing in half-log increments. If the clinical Cmax for an agent had not been determined, the highest concentration tested was 10 microM.
2.3 Cell Culture. All cells were maintained in an incubator at 37 degrees C and 5% CO2 with 95% humidity. The PDC lines were cultured according to standard operating procedures established by the NCI PDMR. All PDCs were thawed and cultured in Matrigel-coated flasks prepared with a working solution of 1X Ham's F-12 nutrient mix, without supplementation (Invitrogen, cat. 11765054), 100 U/mL penicillin-streptomycin (Invitrogen, cat. 15140122), and 2.5% Matrigel (Corning Inc., cat. 354248) for the first three passages. The 857933-349-R-J2-PDC line was cultured in 6C/Colon 1B media, which includes advanced DMEM/F-12 (Thermo Fisher Scientific, cat. 12634028), 10 mM HEPES (Thermo Fisher Scientific, cat. 15630080), 1X GlutaMAX supplement (Thermo Fisher Scientific, cat. 35050061), 0.1 mg/mL primocin (InvivoGen, cat. ant-pm-2), 10% defined fetal bovine serum, heat inactivated (HyClone Laboratories Inc., cat. SH30070.03HI), 50% L-WRN conditioned media (ATCC, cat. CRL-3276), 1.25 mM N-Acetyl-L-cysteine (Sigma-Aldrich, cat. A9165), 10 mM nicotinamide (Sigma-Aldrich, cat. N0636), 1X B-27 supplement (Thermo Fisher Scientific, cat. 17504044), 1X N-2 supplement (Thermo Fisher Scientific, cat. 17502048), 10 microM Y-27632 dihydrochloride (Tocris Bioscience, cat. 1254), and 50 ng/mL human EGF recombinant protein (Thermo Fisher Scientific, cat. PHG0311). The 485176-168-R4-J1-PDC line was cultured in Panc media, which includes all 6C/Colon 1B media components plus 100 ng/mL human FGF-10 (Thermo Fisher Scientific, cat. 100-26), 500 nM SB-431542 (Selleckchem, cat. S1067), and gastrin (Tocris, cat. 3006).
[…]

[1] = second compound 0.0316 µM, first compound 0.0316 µM
[2] = second compound 0.0316 µM, first compound 0.1 µM
[3] = second compound 0.0316 µM, first compound 0.316 µM
[4] = second compound 0.0316 µM, first compound 1 µM
[5] = second compound 0.0316 µM, first compound 3.16 µM
[6] = second compound 0.0316 µM, first compound 10 µM
[7] = second compound 0.1 µM, first compound 0.0316 µM
[8] = second compound 0.1 µM, first compound 0.1 µM
[9] = second compound 0.1 µM, first compound 0.316 µM
[10] = second compound 0.1 µM, first compound 1 µM
[11] = second compound 0.1 µM, first compound 3.16 µM
[12] = second compound 0.1 µM, first compound 10 µM
[13] = second compound 0.316 µM, first compound 0.0316 µM
[14] = second compound 0.316 µM, first compound 0.1 µM
[15] = second compound 0.316 µM, first compound 0.316 µM
[16] = second compound 0.316 µM, first compound 1 µM
[17] = second compound 0.316 µM, first compound 3.16 µM
[18] = second compound 0.316 µM, first compound 10 µM
[19] = second compound 1 µM, first compound 0.0316 µM
[20] = second compound 1 µM, first compound 0.1 µM
[21] = second compound 1 µM, first compound 0.316 µM
[22] = second compound 1 µM, first compound 1 µM
[23] = second compound 1 µM, first compound 3.16 µM
[24] = second compound 1 µM, first compound 10 µM
[25] = second compound 3.16 µM, first compound 0.0316 µM
[26] = second compound 3.16 µM, first compound 0.1 µM
[27] = second compound 3.16 µM, first compound 0.316 µM
[28] = second compound 3.16 µM, first compound 1 µM
[29] = second compound 3.16 µM, first compound 3.16 µM
[30] = second compound 3.16 µM, first compound 10 µM
[31] = second compound 10 µM, first compound 0.0316 µM
[32] = second compound 10 µM, first compound 0.1 µM
[33] = second compound 10 µM, first compound 0.316 µM
[34] = second compound 10 µM, first compound 1 µM
[35] = second compound 10 µM, first compound 3.16 µM
[36] = second compound 10 µM, first compound 10 µM
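Further: spheroids exposed to the agents for seven days before readout.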
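Wherever viability, T/C is given: percent viability relative to DMSO vehicle control wells = 100%.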

IC50 (second compound 0.0316 µM): > 10 µM
IC50 (second compound 0.1 µM): > 10 µM
IC50 (second compound 0.316 µM): > 10 µM
IC50 (second compound 1 µM): > 10 µM
IC50 (second compound 3.16 µM): > 10 µM
IC50 (second compound 10 µM): < 0.0316 µM
Structure (SMILES): C=CC(=O)N1CCN(c2nc(=O)n(-c3c(C)ccnc3C(C)C)c3nc(-c4c(O)cccc4F)c(F)cc23)C(C)C1 (centres undefined) + Cc1cnc(CNC(=O)c2c(=O)c3ccc(N4CCCN(C)CC4)nc3n3c2sc2ccccc23)cn1
viability, T/C [1]: 73.3%
viability, T/C [2]: 71.1%
viability, T/C [3]: 69.3%
viability, T/C [4]: 58.3%
viability, T/C [5]: 59.4%
viability, T/C [6]: 76.8%
viability, T/C [7]: 67.8%
viability, T/C [8]: 74.9%
viability, T/C [9]: 64.1%
viability, T/C [10]: 57.6%
viability, T/C [11]: 60.7%
viability, T/C [12]: 78.2%
viability, T/C [13]: 93%
viability, T/C [14]: 72.9%
viability, T/C [15]: 60.8%
viability, T/C [16]: 67.4%
viability, T/C [17]: 65.1%
viability, T/C [18]: 70.3%
viability, T/C [19]: 73.8%
viability, T/C [20]: 65.3%
viability, T/C [21]: 65.2%
viability, T/C [22]: 67.3%
viability, T/C [23]: 83.7%
viability, T/C [24]: 61.2%
viability, T/C [25]: 76.3%
viability, T/C [26]: 78.9%
viability, T/C [27]: 63.5%
viability, T/C [28]: 69.8%
viability, T/C [29]: 74.6%
viability, T/C [30]: 52.9%
viability, T/C [31]: 0.4%
viability, T/C [32]: 0.46%
viability, T/C [33]: 8.66%
viability, T/C [34]: 0.41%
viability, T/C [35]: 0.41%
viability, T/C [36]: 0.36%

IC50 (second compound 0.0316 µM): 7.51 µM
IC50 (second compound 0.1 µM): 6.85 µM
IC50 (second compound 0.316 µM): 3.15 µM
IC50 (second compound 1 µM): 2.79 µM
IC50 (second compound 3.16 µM): 2.71 µM
IC50 (second compound 10 µM): < 0.0316 µM
Structure (SMILES): COc1ccc([C@@H](O)c2cc(-c3ncnc4cc(N5CCOCC5)ccc34)c(F)cc2Cl)nn1 + Cc1cnc(CNC(=O)c2c(=O)c3ccc(N4CCCN(C)CC4)nc3n3c2sc2ccccc23)cn1
viability, T/C [1]: 75.6%
viability, T/C [2]: 87.8%
viability, T/C [3]: 83.6%
viability, T/C [4]: 82%
viability, T/C [5]: 83.4%
viability, T/C [6]: 39.2%
viability, T/C [7]: 86.4%
viability, T/C [8]: 82.5%
viability, T/C [9]: 109%
viability, T/C [10]: 88.2%
viability, T/C [11]: 78.1%
viability, T/C [12]: 36%
viability, T/C [13]: 84%
viability, T/C [14]: 87.4%
viability, T/C [15]: 86.6%
viability, T/C [16]: 68.1%
viability, T/C [17]: 51.6%
viability, T/C [18]: 32.4%
viability, T/C [19]: 81.5%
viability, T/C [20]: 76.6%
viability, T/C [21]: 73%
viability, T/C [22]: 80%
viability, T/C [23]: 46.6%
viability, T/C [24]: 26.7%
viability, T/C [25]: 67.2%
viability, T/C [26]: 63.1%
viability, T/C [27]: 57.2%
viability, T/C [28]: 62.8%
viability, T/C [29]: 47.7%
viability, T/C [30]: 23.2%
viability, T/C [31]: 0.4%
viability, T/C [32]: 24.3%
viability, T/C [33]: 45.3%
viability, T/C [34]: 21.1%
viability, T/C [35]: 0.32%
viability, T/C [36]: 0.26%
